Measured values as given in patent publication US4117230A, “Hydantoin derivatives as therapeutic agents” (priority 1977, dated 1978).
Values belong to the molecule of their own block, whether it stands above or below them.

Key:
aldose reductase = target: T1, aldose reductase (Bos taurus, UniProt P16116); assay: inhibition of aldose reductase enzyme activity (procedure of S. Hayman et al., modified by K. Sestanj et al.); type: biochemical, calf; conditions: calf lens enzyme, read-out: Percent inhibition of aldose reductase enzyme activity; for inhibition at 100 µM: 10^-4 M; for inhibition at 10 µM: 10^-5 M; for inhibition at 1 µM: 10^-6 M; for inhibition at 0.1 µM: 10^-7 M
T1 construct: partially purified aldose reductose enzyme obtained from calf lens; from tissue; host or cells: calf lens
Description: (§1) The activity of the compounds of the present invention, as agents for the control of chronic diabetic complications, is determined by their ability to successfully pass one or more of the following standard biological and/or pharmacological tests, viz., (1) measuring their ability to inhibit the enzyme activity of isolated aldose reductase; (2) measuring their ability to reduce or inhibit sorbitol accumulation in the sciatic nerve of acutely sterptozotocinized (i.e., diabetic) rats; (3) measuring their ability to reverse already-elevated sorbitol levels in the sciatic nerve and lens of chronic streptozotocin-induced diabetic rats; (4) measuring their ability to prevent or inhibit galactitol formation in the lens of acutely galactosemic rats, and (5) measuring their ability to delay cataract formation and reduce the severity of lens opacities in chronic galactosemic rats.
Hayman et al., as described in the Journal of Biological Chemistry, Vol. 240, p. […] In every case, the substrate employed ws partially purified aldose reductose enzyme obtained from calf lens.

[1] = tested on: sorbitol accumulation in the sciatic nerve of streptozotocinized (i.e., diabetic) rats; assay: inhibition of sorbitol accumulation in the sciatic nerve of acutely streptozotocinized (diabetic) rats; type: in vivo, rat; conditions: measured at 27 h, vs untreated
Description: as §1
The following spiro-hydantoin compounds of Preparation C and Examples I-V, VII-IX, XI-XVII, XIX-XXV, XXVII and XXX-XXXIII, respectively, were tested for their ability to reduce or inhibit sorbitol accumulation in the sciatic nerve of streptozotocinized (i.e., diabetic) rats by the procedure essentially described in U.S. Pat. No. 3,821,383. In the present study, the amount of sorbitol accumulation in the sciatic nerves was measured 27 hours after induction of diabetes. The compounds were administered orally at the dose levels indicated at 4, 8 nd 24 hours following the administration of streptozotocin. The results obtained in this manner are presented below in terms of percent inhibition (%) afforded by the test compound as compared to the case where no compound was administered (i.e., the untreated animal where sorbitol levels normally rise from approximately […]. tissue to as high as […]. tissue in the 27-hour test period): […]

[2] = 5.0 mg./kg. orally at 4, 8 and 24 h after streptozotocin
[3] = 10 mg./kg. orally at 4, 8 and 24 h after streptozotocin
[4] = 2.5 mg./kg. orally at 4, 8 and 24 h after streptozotocin
[5] = 1.5 mg./kg. orally at 4, 8 and 24 h after streptozotocin

SMILES: COc1ccc2c(c1)C1(CC2)NC(=O)NC1=O (stereo not drawn) [Ex. II, 6'-methoxy-spiro-[imidazolidine-4,1'-indan]-2,5-dione]
inhibition at 100 µM (aldose reductase): 97% | inhibition at 10 µM (aldose reductase): 61% | inhibition at 1 µM (aldose reductase): 17% | inhibition at 0.1 µM (aldose reductase): 1% | Percent inhibition of sorbitol accumulation in the sciatic nerve [1, 2]: 6% | Percent inhibition of sorbitol accumulation in the sciatic nerve [1, 3]: 54%

SMILES: O=C1NC(=O)C2(CCc3ccc(F)cc32)N1 (stereo not drawn) [Ex. III, 6'-fluoro-spiro-[imidazolidine-4,1'-indan]-2,5-dione]
inhibition at 100 µM (aldose reductase): 74% | inhibition at 10 µM (aldose reductase): 12% | inhibition at 1 µM (aldose reductase): 22% | inhibition at 0.1 µM (aldose reductase): -1% | Percent inhibition of sorbitol accumulation in the sciatic nerve [1, 2]: 45%

SMILES: COc1cc2c(cc1OC)C1(CC2)NC(=O)NC1=O (stereo not drawn) [Ex. IV, 5',6'-dimethoxy-spiro-[imidazolidine-4,1'-indan]-2,5-dione]
inhibition at 100 µM (aldose reductase): 90% | inhibition at 10 µM (aldose reductase): 81% | inhibition at 1 µM (aldose reductase): 35% | inhibition at 0.1 µM (aldose reductase): 9% | Percent inhibition of sorbitol accumulation in the sciatic nerve [1, 2]: 33% | Percent inhibition of sorbitol accumulation in the sciatic nerve [1, 3]: 49%

SMILES: COc1ccc2c(c1)CCC21NC(=O)NC1=O (stereo not drawn) [Ex. VI, 5'-methoxy-spiro-[imidazolidine-4,1'-indan]-2,5-dione]
inhibition at 100 µM (aldose reductase): 82% | inhibition at 10 µM (aldose reductase): 60% | inhibition at 1 µM (aldose reductase): 13% | inhibition at 0.1 µM (aldose reductase): -10%

SMILES: O=C1NC(=O)C2(CCSc3ccccc32)N1 (stereo not drawn) [Ex. VII, spiro-[imidazolidine-4,4'-thiochroman]-2,5-dione]
inhibition at 100 µM (aldose reductase): 92% | inhibition at 10 µM (aldose reductase): 64% | inhibition at 1 µM (aldose reductase): 10% | inhibition at 0.1 µM (aldose reductase): -5% | Percent inhibition of sorbitol accumulation in the sciatic nerve [1, 2]: 39% | Percent inhibition of sorbitol accumulation in the sciatic nerve [1, 3]: 65%

SMILES: O=C1NC(=O)C2(CCSc3ccc(F)cc32)N1 (stereo not drawn) [Ex. XII, 6'-fluoro-spiro-[imidazolidine-4,4'-thiochroman]-2,5-dione]
inhibition at 100 µM (aldose reductase): 81% | inhibition at 10 µM (aldose reductase): 77% | inhibition at 1 µM (aldose reductase): 66% | inhibition at 0.1 µM (aldose reductase): 38% | Percent inhibition of sorbitol accumulation in the sciatic nerve ([1]; 0.75 mg./kg. orally at 4, 8 and 24 h after streptozotocin): 13% | Percent inhibition of sorbitol accumulation in the sciatic nerve [1, 5]: 45% | Percent inhibition of sorbitol accumulation in the sciatic nerve [1, 4]: 74%

SMILES: O=C1NC(=O)C2(CCSc3c(Cl)cccc32)N1 (stereo not drawn) [Ex. XIII, 8'-chloro-spiro-[imidazolidine-4,4'-thiochroman]-2,5-dione]
inhibition at 100 µM (aldose reductase): 60% | Percent inhibition of sorbitol accumulation in the sciatic nerve [1, 5]: 5%

SMILES: O=C1NC(=O)C2(CCSc3cc(Cl)ccc32)N1 (stereo not drawn) [Ex. XIV, 7'-chloro-spiro-[imidazolidine-4,4'-thiochroman]-2,5-dione]
inhibition at 100 µM (aldose reductase): 70% | Percent inhibition of sorbitol accumulation in the sciatic nerve [1, 5]: 26%

SMILES: COc1ccc2c(c1)CCCC21NC(=O)NC1=O (stereo not drawn) [Ex. XVIII, 3',4'-dihydro-6'-methoxy-spiro[imidazolidine-4,1'(2'H)naphthalene]-2,5-dione]
inhibition at 100 µM (aldose reductase): 72% | inhibition at 10 µM (aldose reductase): 38% | inhibition at 1 µM (aldose reductase): 15% | inhibition at 0.1 µM (aldose reductase): 7%

SMILES: O=C1NC(=O)C2(CCOc3ccccc32)N1 (stereo not drawn) [Ex. XX, spiro[chroman-4,4'-imidazolidine]-2',5'-dione]
inhibition at 100 µM (aldose reductase): 73% | inhibition at 10 µM (aldose reductase): 64% | inhibition at 1 µM (aldose reductase): -9% | inhibition at 0.1 µM (aldose reductase): -16% | Percent inhibition of sorbitol accumulation in the sciatic nerve [1, 4]: 34% | Percent inhibition of sorbitol accumulation in the sciatic nerve [1, 2]: 58% | Percent inhibition of sorbitol accumulation in the sciatic nerve [1, 3]: 77%

SMILES: COc1ccc2c(c1)C1(CCO2)NC(=O)NC1=O (stereo not drawn) [Ex. XXI, 6-methoxy-spiro[chroman-4,4'-imidazolidine]-2',5'-dione]
inhibition at 100 µM (aldose reductase): 100% | inhibition at 10 µM (aldose reductase): 92% | inhibition at 1 µM (aldose reductase): 35% | inhibition at 0.1 µM (aldose reductase): 7% | Percent inhibition of sorbitol accumulation in the sciatic nerve [1, 4]: 24%

SMILES: COc1cccc2c1CCCC21NC(=O)NC1=O (stereo not drawn) [Ex. XXVI, 3',4'-dihydro-5'-methoxy-spiro[imidazolidine-4,1'(2'H)-naphthalene]-2,5-dione]
inhibition at 100 µM (aldose reductase): 72% | inhibition at 10 µM (aldose reductase): 49% | inhibition at 1 µM (aldose reductase): 5% | inhibition at 0.1 µM (aldose reductase): 0%

SMILES: O=C1NC(=O)C2(CCOc3ccc(Br)cc32)N1 (stereo not drawn) [Ex. XXVIII, 6-bromo-spiro-[chroman-4,4'-imidazolidine]-2',5'-dione]
inhibition at 100 µM (aldose reductase): 74%

SMILES: Cc1cc(C)c2c(c1)C1(CCO2)NC(=O)NC1=O (stereo not drawn) [Ex. XXXIV, 6,8-dimethyl-spiro-[chroman-4,4'-imidazolidine]-2',5'-dione]
inhibition at 100 µM (aldose reductase): 71% | inhibition at 10 µM (aldose reductase): 84% | inhibition at 1 µM (aldose reductase): 54% | inhibition at 0.1 µM (aldose reductase): 17%

Second part, led by results:

inhibition at 100 µM (aldose reductase): 79% | inhibition at 10 µM (aldose reductase): 87% | inhibition at 1 µM (aldose reductase): 71% | inhibition at 0.1 µM (aldose reductase): 30%
SMILES: O=C1NC(=O)C2(CCSc3ccc(Cl)cc32)N1 (stereo not drawn) [Ex. IX, 6'-chloro-spiro-[imidazolidine-4,4'-thiochroman]-2,5-dione]
Percent inhibition of sorbitol accumulation in the sciatic nerve [1, 4]: 58%

inhibition at 100 µM (aldose reductase): 92% | inhibition at 10 µM (aldose reductase): 67% | inhibition at 1 µM (aldose reductase): 25% | inhibition at 0.1 µM (aldose reductase): 3%
SMILES: O=C1NC(=O)C2(CCc3cc4c(cc32)OCO4)N1 (stereo not drawn) [Ex. V, 5',6'-methylenedioxy-spiro-[imidazolidine-4,1'-indan]-2,5-dione]
Percent inhibition of sorbitol accumulation in the sciatic nerve [1, 2]: 9%

inhibition at 100 µM (aldose reductase): 76% | inhibition at 10 µM (aldose reductase): 60% | inhibition at 1 µM (aldose reductase): 18% | inhibition at 0.1 µM (aldose reductase): 7%
SMILES: COc1ccc2c(c1)C1(CCS2)NC(=O)NC1=O (stereo not drawn) [Ex. VIII, 6'-methoxy-spiro-[imidazolidine-4,4'-thiochroman]-2,5-dione]
Percent inhibition of sorbitol accumulation in the sciatic nerve [1, 2]: 26%

inhibition at 100 µM (aldose reductase): 32%
SMILES: O=C1NC(=O)C2(CCSc3ccc(Br)cc32)N1 (stereo not drawn) [Ex. X, 6-bromo-spiro-[imidazolidine-4,4'-thiochroman]-2,5-dione]

inhibition at 100 µM (aldose reductase): 93% | inhibition at 10 µM (aldose reductase): 31% | inhibition at 1 µM (aldose reductase): 11% | inhibition at 0.1 µM (aldose reductase): -30%
SMILES: O=C1NC(=O)C2(CCc3ccc(O)cc32)N1 (stereo not drawn) [Ex. XIX, 6'-hydroxy-spiro-[imidazolidine-4,1'indan]-2,5-dione]
Percent inhibition of sorbitol accumulation in the sciatic nerve [1, 3]: 15%

inhibition at 100 µM (aldose reductase): 83% | inhibition at 10 µM (aldose reductase): 54% | inhibition at 1 µM (aldose reductase): 9% | inhibition at 0.1 µM (aldose reductase): -2%
SMILES: O=C1NC(=O)C2(CCCc3ncccc32)N1 (stereo not drawn) [Ex. XV, 7',8'-dihydro-spiro[imidazolidine-4,5'(6H)-quinoline]-2,5-dione]
Percent inhibition of sorbitol accumulation in the sciatic nerve [1, 2]: 5% | Percent inhibition of sorbitol accumulation in the sciatic nerve [1, 3]: 52%

inhibition at 100 µM (aldose reductase): 54% | inhibition at 1 µM (aldose reductase): 23%
SMILES: COc1ccc2c(c1)C1(CCC2)NC(=O)NC1=O (stereo not drawn) [Ex. XVI, 3',4'-dihydro-7'-methoxy-spiro[imidazolidine-4,1'(2'H)naphthalene]-2,5-dione]
Percent inhibition of sorbitol accumulation in the sciatic nerve [1, 2]: 25% | Percent inhibition of sorbitol accumulation in the sciatic nerve [1, 3]: 44%

inhibition at 100 µM (aldose reductase): 82% | inhibition at 10 µM (aldose reductase): 26% | inhibition at 1 µM (aldose reductase): 8% | inhibition at 0.1 µM (aldose reductase): 16%
SMILES: COc1cc2c(cc1OC)C1(CCC2)NC(=O)NC1=O (stereo not drawn) [Ex. XVII, 3',4'-dihydro-6',7'-dimethoxy-spiro[imidazolidine-4,1'-(2H)naphthalene]-2,5-dione]

inhibition at 100 µM (aldose reductase): 94% | inhibition at 10 µM (aldose reductase): 69% | inhibition at 1 µM (aldose reductase): 31% | inhibition at 0.1 µM (aldose reductase): 2%
SMILES: O=C1NC(=O)C2(CCS(=O)(=O)c3ccccc32)N1 (stereo not drawn) [Ex. XXXII, spiro-[imidazolidine-4,4'-thiochroman]-2,5-dione-1',1'-dioxide]
